Calls of active or inactive are those of the source. Unless noted, no cut-off for these calls is given here.
How the values were obtained:
[1] = biological target: Apoptotic protease-activating factor 1 (Homo sapiens, UniProt O14727); format: functional
[2] = biological target: Glycogen synthase kinase-3 alpha (Homo sapiens, UniProt P49840); assay: Inhibition of Human GSK-3 alpha Activity Measured in Biochemical System Using Microfluidics - 2063-06_Inhibitor_Dose_DryPowder_Activity_Set2. [Related pubchem assays (depositor defined):AID2709]
Chain of Glycogen synthase kinase-3 alpha (P49840 whole entry): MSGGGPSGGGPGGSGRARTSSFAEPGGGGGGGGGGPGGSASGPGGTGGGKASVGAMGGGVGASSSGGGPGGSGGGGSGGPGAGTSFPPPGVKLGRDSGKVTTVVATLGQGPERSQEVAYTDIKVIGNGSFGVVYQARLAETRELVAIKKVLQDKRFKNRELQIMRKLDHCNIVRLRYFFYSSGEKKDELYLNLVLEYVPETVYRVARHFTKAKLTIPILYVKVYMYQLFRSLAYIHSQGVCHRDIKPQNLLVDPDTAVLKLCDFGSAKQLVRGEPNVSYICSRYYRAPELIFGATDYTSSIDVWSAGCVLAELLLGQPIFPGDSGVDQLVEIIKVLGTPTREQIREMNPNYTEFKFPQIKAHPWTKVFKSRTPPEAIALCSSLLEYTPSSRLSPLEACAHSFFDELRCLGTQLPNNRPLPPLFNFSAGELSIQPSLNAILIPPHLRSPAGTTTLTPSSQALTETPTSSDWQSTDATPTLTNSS

[3] = biological target: Glycogen synthase kinase-3 beta (Homo sapiens, UniProt P49841); assay: Inhibition of Human GSK-3 beta Activity Measured in Biochemical System Using Microfluidics - 2063-05_Inhibitor_Dose_DryPowder_Activity_Set2. [Related pubchem assays (depositor defined):AID2709]
Chain of Glycogen synthase kinase-3 beta (P49841 whole entry): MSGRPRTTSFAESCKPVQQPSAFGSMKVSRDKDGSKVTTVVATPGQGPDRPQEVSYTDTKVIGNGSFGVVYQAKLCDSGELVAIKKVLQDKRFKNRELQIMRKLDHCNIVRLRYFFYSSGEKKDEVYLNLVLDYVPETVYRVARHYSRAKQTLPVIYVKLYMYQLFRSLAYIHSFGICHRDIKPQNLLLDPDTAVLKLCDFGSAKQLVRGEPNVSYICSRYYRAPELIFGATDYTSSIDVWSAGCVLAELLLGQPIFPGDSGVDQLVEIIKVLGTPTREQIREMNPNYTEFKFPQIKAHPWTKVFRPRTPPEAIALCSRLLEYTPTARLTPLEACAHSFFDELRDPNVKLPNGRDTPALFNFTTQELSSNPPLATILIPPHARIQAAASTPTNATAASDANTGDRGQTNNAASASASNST

[4] = test system: INS1; assay: beta-cell survival under cytokine stress – INS-1E, ATP luminescence, dry powder, dose response (AID 488844); format: functional, cell-based; conditions: Rattus norvegicus
[5] = test system: INS1; assay: INS-1E mitochondrial potential loss inhibitors – cell-based, JC-1 fluorescence, dry powder, set 2, dose response (AID 488867); format: functional; conditions: Rattus norvegicus
[6] = test system: INS1; assay: suppression of NO production in INS-1E cells – cell-based, Griess absorbance, dry powder, set 2, dose response (AID 488868); format: functional; conditions: Rattus norvegicus
[7] = viability loss in Vero cells – cell-based, purified and synthesized samples, set 8, cytotoxicity control for M. tuberculosis inhibitor project (AID 602431); format: functional; conditions: Mycobacterium tuberculosis
[8] = THP-1 cell cytotoxicity, cytotoxicity control, set 6 (AID 602433); format: functional; conditions: Mycobacterium tuberculosis

Chain of Apoptotic protease-activating factor 1 (O14727 whole entry): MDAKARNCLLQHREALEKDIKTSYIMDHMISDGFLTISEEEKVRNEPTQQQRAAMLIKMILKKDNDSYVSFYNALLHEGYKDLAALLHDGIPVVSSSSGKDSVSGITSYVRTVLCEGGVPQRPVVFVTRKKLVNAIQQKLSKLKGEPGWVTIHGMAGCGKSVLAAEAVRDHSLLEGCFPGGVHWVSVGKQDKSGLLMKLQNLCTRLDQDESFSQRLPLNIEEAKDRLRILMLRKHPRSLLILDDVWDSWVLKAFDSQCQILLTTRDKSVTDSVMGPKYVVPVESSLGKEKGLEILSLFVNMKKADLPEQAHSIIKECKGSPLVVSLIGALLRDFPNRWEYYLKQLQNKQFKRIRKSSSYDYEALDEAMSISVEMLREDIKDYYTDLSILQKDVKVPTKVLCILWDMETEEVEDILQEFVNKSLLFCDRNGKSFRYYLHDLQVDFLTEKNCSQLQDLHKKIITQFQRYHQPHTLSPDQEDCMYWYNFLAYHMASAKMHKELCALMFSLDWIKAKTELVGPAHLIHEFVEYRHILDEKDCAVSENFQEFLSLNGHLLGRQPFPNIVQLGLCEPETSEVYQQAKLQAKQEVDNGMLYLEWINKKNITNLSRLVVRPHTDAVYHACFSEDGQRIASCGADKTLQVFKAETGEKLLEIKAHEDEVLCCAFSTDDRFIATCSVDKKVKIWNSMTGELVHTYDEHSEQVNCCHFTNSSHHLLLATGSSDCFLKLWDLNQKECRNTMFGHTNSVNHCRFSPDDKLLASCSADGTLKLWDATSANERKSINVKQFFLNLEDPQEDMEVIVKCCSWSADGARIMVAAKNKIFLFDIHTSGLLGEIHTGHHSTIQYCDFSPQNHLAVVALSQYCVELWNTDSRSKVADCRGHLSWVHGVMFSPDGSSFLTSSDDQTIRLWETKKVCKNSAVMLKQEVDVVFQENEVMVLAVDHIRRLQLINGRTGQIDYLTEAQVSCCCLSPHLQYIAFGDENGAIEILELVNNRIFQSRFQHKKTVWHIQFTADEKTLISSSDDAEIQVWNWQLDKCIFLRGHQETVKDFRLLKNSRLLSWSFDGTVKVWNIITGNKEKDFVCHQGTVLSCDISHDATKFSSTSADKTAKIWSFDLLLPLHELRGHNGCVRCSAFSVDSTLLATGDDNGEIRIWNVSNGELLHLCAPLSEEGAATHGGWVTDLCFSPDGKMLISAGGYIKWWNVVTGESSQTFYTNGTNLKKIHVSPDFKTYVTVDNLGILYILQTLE

## Cc1ccc(-n2nc3ccc(N)cc3n2)cc1Cl
[1]
  IC50: > 100 µM (inactive)

## Nc1nonc1-n1nnc(C(=O)N/N=C/c2ccccc2Cl)c1CN1CCOCC1
[2]
  AC50: 5.64 µM (active)
[3]
  AC50: 2 µM (active)

## COc1ccc(S(=O)(=O)N(C)C[C@@H]2Oc3c(NC(=O)Nc4cccc5ccccc45)cccc3C(=O)N([C@H](C)CO)C[C@H]2C)cc1
[4]
  AC50: 18.4 µM (active)
[5]
  AC50: > 235 µM (inactive)
[6]
  AC50: 74.5 µM (active)

## COc1ccc(NC(=O)NCc2ccc(C(=O)N3CCC(c4ccccc4)CC3)cc2)cc1
[7]
  CC50: 91.3 µM (active)
[8]
  CC50: > 98.9 µM (active)
